Test results: a compilation of properties of binary mixtures (doi:10.1007/s10765-020-02720-w)

Assay: xn = mol fraction of the nth substance listed
Settings: 100 kPa

Row | viscosity (293.2 K, x1 = 1) | viscosity (308.19 K, x1 = 1) | viscosity (338.16 K, x1 = 1) | viscosity (368.13 K, x1 = 1) | viscosity (293.2 K, x2 = 0.91) | viscosity (293.2 K, x2 = 0.972) | viscosity (308.19 K, x2 = 0.91) | viscosity (308.19 K, x2 = 0.972) | viscosity (338.16 K, x2 = 0.91) | viscosity (368.13 K, x2 = 0.91) | viscosity (368.13 K, x2 = 0.972) | Structure (SMILES)
1 | 343 mPa·s | 144 mPa·s | 39.5 mPa·s | 16.34 mPa·s | – | – | – | – | – | – | – | CCCC[n+]1ccn(C)c1.F[P-](F)(F)(F)(F)F + C[n+]1ccn(CCC(F)(F)C(F)(F)F)c1.F[P-](F)(F)(F)(F)F
2 | – | – | – | – | 430 mPa·s | 370 mPa·s | 171 mPa·s | 153 mPa·s | 46.2 mPa·s | 17.6 mPa·s | 16.38 mPa·s | C[n+]1ccn(CCC(F)(F)C(F)(F)F)c1.F[P-](F)(F)(F)(F)F + CCCC[n+]1ccn(C)c1.F[P-](F)(F)(F)(F)F
